According to patent US10183011B2, “Anti-depression compounds” (Board of Regents of the University of Texas System, priority 2009, dated 2019):

What was measured:
[1] = test system: newborn hippocampal neurons; test: 30 day BrdU pulse-chase survival assay of newborn hippocampal neurons, dose response; format: in vivo, mouse (C57 Bl/6); conditions: for increase in survival of newborn neurons: 5 mg/kg/day i.p. for 30 days; for neuroprotective efficacy (increase in survival of newborn neurons): 10 mg/kg/day i.p. for 30 days; for ceiling of efficacy (CoE), increase in survival: 20 or 40 mg/kg/day i.p. for 30 days
Method: FIG. 28. Neuroprotective efficacy of P7C3, P7C3A20 and Dimebon for newborn neurons in the adult hippocampus. Test compounds were evaluated by dose response assay for their ability to block normal apoptotic cell death of newborn neural precursor cells in the adult dentate gyrus. […] P7C3 is intermediate in both measures. 6 animals were tested per group. Dosing is expressed as total mg/day, and compounds were administered intraperitoneally in divided doses twice daily. Data are expressed as mean±SEM. Values for P7C3 and P7C3A20 were compared to those of vehicle (VEH), and values for Dimebon were compared to those of saline (SAL).
In order to more carefully compare the neuroprotective efficacy of these compounds in abetting hippocampal neurogenesis, we conducted dose-response studies in a 30 day BrdU pulse-chase survival assay (FIG. 28). Briefly, newborn cells were labeled with a single intraperitoneal (i.p.) injection of BrdU (150 mg/kg), followed by daily treatment with the three test compounds beginning the following day. After 30 days of compound administration, mice were transcardially perfused with 4% paraformaldehyde, brains were dissected, and immunohistochemical detection of BrdU followed by standard microscopic imaging and normalization for dentate gyrus volume was used to quantify the number of surviving cells.
Because both social activity and voluntary exercise enhance hippocampal neurogenesis, mice were individually housed without access to running wheels throughout the entire procedure, beginning one week prior to bromodeoxyuridine (BrdU, Sigma-Aldrich) labeling of newborn cells. Throughout the study, mice had ad libitum access to food and water. BrdU was injected intraperitoneally at 150 mg/kg i.p., and 24 hours later administration of test compounds or vehicle was initiated. P7C3 and P7C3A20 were dissolved in 5% dextrose (pH 7.0) with 2.5% DMSO and 10% Cremaphor EL (Sigma, C5135). Dimebon was dissolved in normal saline. Compounds were compared to their respective controls, and were tested at 2.5, 5, 10 and 20 mg/kg twice daily (i.p.) for 30 days. The injection site was alternated between right and left sides. Each group consisted of six 12-week-old adult male C57 Bl/6 mice. Animals were monitored daily for general health and weight loss. Cage changes were performed per routine scheduling. After 30 days of compound administration, mice were sacrificed by transcardial perfusion with 4% paraformaldehyde at pH 7.4, and their brains were processed for immunohistochemical detection of incorporated BrdU in the dentate gyrus. Dissected brains were immersed in 4% paraformaldehyde overnight at 4 degrees Celsius, then cryoprotected in sucrose before being sectioned with a Leica SM2000R sliding microtome coronally into […] thick free-floating sections. Unmasking of BrdU antigen was achieved through incubating tissue sections for two hours in 50% formamide/2×SSC at 65 degrees Celsius, followed by five minute wash in 2×SSC and subsequent incubation for thirty minutes in 2M HCl at 37 degrees Celsius. Sections were processed for immunohistochemical staining with mouse monoclonal anti-BrdU (1:100, Roche). Diaminobenzidine was used as a chromagen, and tissue was counter-stained with hematoxylin to aid in visualization of the neuroanatomy. Images were analyzed with a Nikon Eclipse 90i motorized research microscope with Plan Apo lenses coupled with Metamorph Image Acquisition software (Nikon). Quantification of all staining was done blind to treatment group. The number of BrdU+ cells in the entire dentate gyrus was quantified by counting BrdU+ cells within the dentate gyrus in every fifth section throughout the entire hippocampus and then normalizing for dentate gyrus volume.

[2] = test system: dopaminergic neurons in C. elegans; test: MPP+ toxicity to dopaminergic neurons in C. elegans; format: in vivo; conditions: for protection of dopaminergic neurons from MPP+: 10 μM, 5 mM MPP+ for 40 hrs
Method: FIG. 31. Neuroprotective efficacy of P7C3 and P7C3A20 for MPP^+ toxicity to dopaminergic neurons in C. elegans. Worms were treated with 5 mM MPP^+ for 40 hrs, with pre-incubation for 30 minutes with different concentrations of test compounds or vehicle. […] By contrast, GFP expression was lost after 40 hrs of MPP^+ exposure (unfilled arrow). […] 20 worms were analyzed per group, and each group was performed in triplicate. Data are expressed as mean±SEM.
Genes, metabolic signaling pathways, neurotransmitters and receptor pharmacology are highly conserved between C. elegans and vertebrates, and exposure of C. elegans to MPP^+ has been reported to selectively kill dopaminergic neurons and impair mobility. To investigate the neuroprotective efficacy of P7C3A20, P7C3 and Dimebon from MPP^+ toxicity in C. elegans, we monitored dopaminergic cell death in a transgenic strain of worms in which dopaminergic neurons fluoresce green by virtue of GFP expression driven by the dopaminergic neuron-specific promoter dat-1. […] Cephalic sensilla dopaminergic dendrites were observed under 40× magnification (AMG, Evos fl microscope), and GFP signal was followed from the nerve ring to the tip of the nose, following established protocols. If any part of a dendrite was absent, as evidenced by loss of GFP signal, it was counted as degraded. All analyses were performed blind to treatment group.
Synchronized L1 larvae were plated into each well of a 12-well plate (approximately 400 larvae per well) containing PBS, Vehicle or compounds, with or without 5 mM MPP^+ iodide (Sigma) freshly diluted in PBS. DMSO was used as vehicle (VEH) and the concentration in treatment groups was maintained below 1%. The assay solution ([…]) was incubated for 40 hrs at 20 degrees Celsius. The worms were then washed in dH2O and supernatant was aspirated. To examine dopaminergic neuron toxicity, worms were anesthetized (0.1% tricaine, 0.01% tetramizole) for 5 min and then transferred to microscope slides and coverslipped. Pictures were taken at 40× magnification (AMG, Evos fl microscope). Each experiment was conducted in triplicate with 10-20 worms counted per condition. For quantification, investigators were blind to treatment condition. Quantification was done by observing all four cephalic sensilla (CEP) dendrites, per standard protocol. Briefly, GFP fluorescence was visualized from the nerve ring to the tip of the nose, and if any portion of a dendrite was absent then it was counted as being degenerated.

[3] = Plasma, brain and spinal cord levels in G93A-SOD1 study (LC/MS/MS); format: in vivo, mouse; conditions: 20 mg/kg/day for 21 days; for spinal cord accumulation relative to other compound: six hours after last injection
Method: FIG. 37. Plasma, brain and spinal cord levels of P7C3A20, P7C3 and Dimebon. Five mice for each compound group were treated for 21 days with 20 mg/kg/day of the compound, starting on day 85. Blood, brain and spinal cord were harvested six hours after the last injection and compound levels were measured by LC/MS/MS. Concentrations are presented as mean±SEM.

Cc1ccc2c(c1)c1c(n2CCc2ccc(C)nc2)CCN(C)C1 [Dimebon, 2,3,4,5-Tetrahydro-2,8-dimethyl-5-(2-(6-methyl-3-pyridyl)ethyl)-1H-pyrido(4,3-b)indole, reference compound]
increase in survival of newborn neurons [1]: neither P7C3 nor Dimebon exhibited any effect | neuroprotective efficacy (increase in survival of newborn neurons) [1]: 15% | ceiling of efficacy (CoE), increase in survival [1]: ≈ 30% | protection of dopaminergic neurons from MPP+ [2]: failed to protect dopaminergic neurons | entry into brain and spinal cord [3]: able to enter both the brain and spinal cord | spinal cord accumulation relative to other compound [3]: comparable levels of spinal cord accumulation to P7C3A20

COc1cccc(NCC(F)Cn2c3ccc(Br)cc3c3cc(Br)ccc32)c1 (stereo not shown) [Example P7C3A20, N-(3-(3,6-dibromo-9H-carbazol-9-yl)-2-fluoropropyl)-3-methoxyaniline]
increase in survival of newborn neurons [1]: ~100% | neuroprotective efficacy (increase in survival of newborn neurons) [1]: about 175% | ceiling of efficacy (CoE), increase in survival [1]: ≈ 230% | onset of neuroprotective efficacy ([2]; 0.1 μM): 30% | protection of dopaminergic neurons from MPP+ [2]: 80% | entry into brain and spinal cord [3]: able to enter both the brain and spinal cord | spinal cord accumulation relative to other compound [3]: less than one-twentieth the concentration of P7C3

OC(CNc1ccccc1)Cn1c2ccc(Br)cc2c2cc(Br)ccc21 (stereo not shown) [Example P7C3]
increase in survival of newborn neurons [1]: neither P7C3 nor Dimebon exhibited any effect | neuroprotective efficacy (increase in survival of newborn neurons) [1]: 65% | ceiling of efficacy (CoE), increase in survival [1]: ≈ 130% | onset of neuroprotective efficacy ([2]; 1.0 μM): 35% | protection of dopaminergic neurons from MPP+ [2]: about 50% | entry into brain and spinal cord [3]: able to enter both the brain and spinal cord
